Measured values: PubChem BioAssay AID1626 (SRMLSC, 2009)

Test system: M. tuberculosis H37Rv growth inhibition
Assay: M. tuberculosis H37Rv growth inhibitors, H37Rv strain (AID 1626)
Details: for IC90: measured here: IC90 against H37Rv; for CC50: measured here: Vero cell cytotoxicity

Structure (SMILES)	IC50	IC90	CC50
CCCCc1c(C)c(C#N)c2nc3ccccc3n2c1Cl	10.1 µM	> 100 µM	5.35 µM
CCOc1ccc2nc(NC(=O)CSc3nc(SC)ns3)sc2c1	2.95 µM	> 100 µM	> 40 µM
Cc1ccc(Nc2c(-c3ccccn3)nc3cc(C)ccn23)cc1	1.38 µM	1.55 µM	1.39 µM
CCOc1ccc(OCC)c(NC(=O)CN2CCN(c3cc(C)ccc3C)CC2)c1	–	> 100 µM	> 40 µM
O=C1C=C(Nc2ccccc2)c2ccccc2C1=O	12.3 µM	21.2 µM	13.7 µM
Cc1ccc(-c2csc3ncnc(Oc4ccc5c(C)cc(=O)oc5c4)c23)cc1	< 0.195 µM	> 100 µM	> 40 µM
CCOC(=O)c1sc2nc(CSc3ccccc3)nc(N3CCCN(C)CC3)c2c1C	5.79 µM	6.53 µM	24.8 µM
CCOC(=O)c1cnc(-n2nc(C)cc2C)nc1N(CC)CC	3.78 µM	6.53 µM	> 40 µM
Cc1ccc(C)c(/C=C/C(=O)c2ccccc(=O)c2O)c1	–	–	4.93 µM
CCCCc1ccc(C2C3=C(CC(C)(C)CC3=O)NC3=C2C(=O)c2ccccc23)cc1 (configuration not stated)	3.09 µM	> 100 µM	> 40 µM
CC(C)COCC(CN(Cc1ccccc1)c1ccccc1)N1CCCC1 (configuration not stated)	14.8 µM	20.1 µM	> 40 µM
COc1ccc(C2CC(=O)N3CN(c4ccc(C)c(Cl)c4)CSC3=C2C#N)cc1OC (configuration not stated)	–	> 100 µM	–
CCOC(=O)c1ccc(NC(=O)/C=C/c2cccs2)cc1	71.3 µM	> 100 µM	–
COc1ccc(/C=c2\s/c(=C/C(=O)c3ccc(C)cc3)[nH]c2=O)cc1OC	32.6 µM	> 100 µM	–
COc1ccc(Cl)cc1NC(=O)C(C)N1CCN(C/C=C/c2ccccc2)CC1 (configuration not stated)	12.3 µM	13.3 µM	–
CCC(=O)Nc1nc(-c2cc([N+](=O)[O-])cs2)cs1	< 0.195 µM	> 100 µM	–
COc1cc(/C=C(\C#N)C(=O)NC2CCCCC2C)ccc1OS(=O)(=O)c1ccc(C)cc1 (configuration not stated)	–	> 100 µM	9.49 µM
O=C(OCC(=O)c1c[nH]c2ccccc12)c1ccc([N+](=O)[O-])s1	1.21 µM	1.93 µM	–
COc1ccc(C2(CNC(=O)c3cc([N+](=O)[O-])cc([N+](=O)[O-])c3)CCCC2)cc1OC	< 0.195 µM	0.686 µM	–
Cc1ccc(NC(=O)N2CCC(c3nc4c(nnn4Cc4cccc(Cl)c4)c(=O)[nH]3)CC2)cc1	5.13 µM	6.62 µM	–
Cc1cccc(NC(=O)/C=C/c2ccc([N+](=O)[O-])s2)c1	< 0.391 µM	< 0.391 µM	6.99 µM

Structure (SMILES)	IC50	IC90	CC50
CC/C(=C(\c1ccc(O)cc1)c1ccc(OCCN(C)C)cc1)c1ccccc1	8.76 µM	12.3 µM	14.1 µM
CC(C)OC(=O)CSc1ncnc2c1cnn2Cc1ccccc1	8.22 µM	19 µM	–
O=C(Nc1nnc(-c2cccs2)o1)c1cccc(Oc2ccccc2)c1	< 0.195 µM	2.67 µM	34 µM
CN1CCN(c2nc(-c3ccccc3)nc(-c3ccc(F)cc3)c2C#N)CC1	23.9 µM	> 100 µM	> 40 µM
O=C(Nc1nnc(C2=COCCO2)o1)c1ccc(Cl)cc1	2.71 µM	4.41 µM	> 40 µM
COc1ccc(N=C2CCS(=O)(=O)c3sccc32)cc1	54.3 µM	> 100 µM	–
COC(=O)CSc1nc2ccccc2nc1SCC(=O)OC	4.87 µM	12.5 µM	–
O=C(NC(Nc1nc2ccc([N+](=O)[O-])cc2s1)(C(F)(F)F)C(F)(F)F)c1ccccc1Cl	2.17 µM	4.17 µM	1 µM
Cc1ccc(C(=O)N/C(=C\c2ccc(-c3ccc(Br)cc3)o2)C(=O)NCCCN(C)C)cc1	15.5 µM	18.2 µM	6.45 µM
CCn1ccnc1CN(C)Cc1cn(-c2ccc(C)cc2)nc1-c1cccc(C)c1	2.73 µM	3.64 µM	> 40 µM
O=[N+]([O-])c1ccc(-c2nc(C(Cl)Cl)c3ccccc3n2)cc1	< 0.195 µM	< 0.195 µM	< 0.078 µM
CC1=Nc2ccccc2/C1=C\c1nc(-c2ccc(C(F)(F)F)cc2)oc1O	1.71 µM	> 100 µM	> 40 µM
O=[N+]([O-])c1cc(C(F)(F)F)ccc1Oc1cccnc1[N+](=O)[O-]	1.54 µM	1.73 µM	–
Cc1cc(N)c2cc(NC(=O)/C=C/c3ccccc3Cl)ccc2n1	1.68 µM	2.84 µM	1.76 µM
CC(=O)c1ccc(NC(=O)c2cc(CC(C)C)on2)cc1	7.21 µM	42.9 µM	–
Cn1cnnc1SCc1ccc(-c2ccc(Br)cc2)o1	–	> 100 µM	> 40 µM
CCCCOC(=O)c1ccc(NC(=O)C(=O)NCCN(C)C)cc1	14.9 µM	> 100 µM	–
Nc1nc2ccccc2n1C(=O)c1ccc(F)cc1	1.93 µM	4.15 µM	> 40 µM
Cc1nc(SCc2ccc(F)cc2)c2oc3ccccc3c2n1	< 0.195 µM	> 100 µM	–
CCCCn1c(O)c(C(CC)=Nc2ccc(OCC)cc2)c(=O)[nH]c1=O	7.89 µM	> 100 µM	> 40 µM
O=C(OCc1ccc(F)cc1)c1ccc2ccccc2n1	8.16 µM	14.4 µM	–

Structure (SMILES)	IC50	IC90	CC50
COCC(=O)Nc1ccc(Br)c(C)c1	–	> 100 µM	–
Cn1cc(C(=O)CCl)c2ccccc21	1.6 µM	4.01 µM	10.9 µM
CCOc1ccc2nc(NC(=O)CSc3nnnn3C3CCCCC3)sc2c1	56.4 µM	> 100 µM	–
Cc1ccc2[nH]c3c(N4CCc5ccccc5C4)ncnc3c2c1	11.8 µM	25.8 µM	10.8 µM
CCCC(=O)OCCNc1cc(Sc2nc3ccccc3[nH]2)c2nonc2c1[N+](=O)[O-]	68.1 µM	> 100 µM	23.5 µM
CC(C)c1ccc(NC(=O)COc2ccc(C3SCCS3)cc2)cc1	–	> 100 µM	–
Cc1ccc(C(=O)/C=C\Nc2ccc(C)c(C)c2)cc1	–	> 100 µM	–
Cc1ccc(Sc2ccc(C=C3C(=O)N(C)C(=O)N(C)C3=O)o2)cc1	7.56 µM	20.8 µM	–
CCCCOc1ccc(NC(=O)c2cnc(C)cn2)cc1	22.1 µM	> 100 µM	> 40 µM
COc1ccc(CNC(=O)c2c(C)nc3ccccn23)cc1	1.77 µM	7.63 µM	–
COC(=O)CSc1nc(N)c2c3c(sc2n1)C(c1ccccc1)SC(c1ccccc1)C3 (configuration not stated)	14.4 µM	> 100 µM	7.1 µM
CCOC(=O)c1ccc(NC(=O)c2cc3ccccc3o2)cc1	4.67 µM	> 100 µM	–
Cc1ccc(-c2c[n+](CC(=O)N3c4ccccc4Sc4ccccc43)c3n2CCC3)cc1	7.87 µM	20.6 µM	–
CCCOc1cccc(-c2nn(-c3ccccc3)cc2/C=C(\C#N)C(=O)NCCCn2ccnc2)c1	10.9 µM	11.9 µM	> 40 µM
Cc1ccc(C(=O)Nc2nnc(-c3ccncc3)o2)cc1	5.94 µM	6.95 µM	> 40 µM
OCCN1CCN(CC(O)COc2ccc(C34CC5CC(CC(C5)C3)C4)cc2)CC1 (configuration not stated)	9.56 µM	15.2 µM	9.85 µM
CC1CCCC(NC(=O)COC(=O)c2sc3ccccc3c2Cl)C1C (configuration not stated)	7.47 µM	> 100 µM	–
COc1ccc(-c2oc3ccc(N4CCOCC4)cc3c2C#CC2(O)CCCCC2)cc1	–	–	> 40 µM
COc1ccccc1/C=C/C(=O)Oc1cccc2cccnc12	2.8 µM	3.05 µM	37.9 µM
Cc1ccc(N/C(N)=N/c2nc(C)cc(N3CCCCC3)n2)c(C)c1	2.17 µM	3.68 µM	9.19 µM
N#CC1=C(c2ccccc2)/C(=C/c2ccccc2)OC1=O	17.6 µM	> 100 µM	15.4 µM

Structure (SMILES)	IC50	IC90	CC50
CCCc1cc(NCCCn2ccnc2)n2nc(C)c(-c3ccccc3)c2n1	6.28 µM	9.38 µM	> 40 µM
CCOC(=O)c1ccc(NC(=O)c2ccc(OC(C)C)c(OC)c2)cc1	14.1 µM	28.2 µM	–
Cc1ccc(-n2nnnc2Sc2nc([N+](=O)[O-])nn2C)cc1C	7.23 µM	13.2 µM	37.6 µM
CCc1ccc2c(c1)/C(=C/C(=O)c1cccs1)C(=O)N2	3.06 µM	12.2 µM	18.9 µM
Cc1nc2cc(C(=O)OCC(=O)NC34CC5CC(CC(C5)C3)C4)ccc2n1-c1ccccc1	7.9 µM	12.1 µM	–
O=C1C2C(c3ccccc3)(C(=O)N1c1ccc(Cl)cc1)C2(c1ccccc1)c1ccccc1 (configuration not stated)	22.4 µM	> 100 µM	> 40 µM
CCc1ccc(NC(=O)c2cnc(N3CCN(c4ccccn4)CC3)c3ccccc23)cc1	0.444 µM	5.71 µM	> 40 µM
[O-][n+]1onc2c3cc(-c4ccccc4)nnc3ccc21	< 0.195 µM	0.443 µM	–
CC(C)(C)c1ccc(C(=O)CC(=O)c2cc(Cl)ccc2O)cc1	2.67 µM	3.14 µM	12.4 µM
Cc1nn2c(N3CCN(C)CC3)cc(C(C)(C)C)nc2c1-c1ccccc1	3.03 µM	4.55 µM	25.3 µM
C=C(C)C1Cc2c(C)nn(-c3nc(C)cc(C)n3)c2C1 (configuration not stated)	10.1 µM	> 100 µM	> 40 µM
Cc1cc(N2CCCCC2)nc2ccc(NC(=O)c3ccc(Br)o3)cc12	1.69 µM	3.38 µM	> 40 µM
Cn1c(NCc2ccco2)nc2c1c(=O)n(Cc1ccc(Br)cc1)c(=O)n2C	99.3 µM	> 100 µM	> 40 µM
O=C(Nc1nnc(-c2ccc3c(c2)CCCC3)o1)c1ccc(Cl)cc1Cl	0.625 µM	0.962 µM	> 40 µM
COc1ccc(CNc2nc3nc4c(c(=O)n3[nH]2)CCC4)cc1	1.09 µM	> 100 µM	–
CCC(=O)Nc1cccc(C(=O)/C=C/c2ccccc2)c1	22.1 µM	28.2 µM	10.7 µM
O=C(CCc1ccc(Oc2cc([N+](=O)[O-])cc([N+](=O)[O-])c2)cc1)N1CCCCCC1	7.53 µM	15.6 µM	37.2 µM
COc1ccc(C(=O)CCNc2ccc(C)c(Cl)c2)cc1	58.9 µM	> 100 µM	–
